What was measured:
[1] = Heat stability of solid forms (Experimental Example 1); type: physicochemical; settings: solid form of 1-(cyclohexyloxycarbonyloxy)ethyl ester
Excerpt: 1-(Cyclohexyloxycarbonyloxy)ethyl 2-ethoxy-1-[[2′-(1 H-tetrazol-5-yl)biphenyl-4-yl]methyl]benzimidazole-7-carboxylate is usually purified by column chromatography on silica gel and the eluted fraction is concentrated to dryness to give amorphous powders. […] For solving this problem, the present inventors made extensive experiments on crystallization of the subject compound and discovered C-type crystalline form. […] The C-type crystal of the title compound has approximately the following lattice spacings: […]

A II receptor = target: T1, A II receptor (Bos taurus, UniProt P25104); assay: Inhibition of binding of angiotensin II to angiotensin receptor (radioreceptor assay); design: species or system bovine; Radioreceptor Assay 1 × 10^−7M / Radioreceptor Assay 1 × 10^−6M: unit not given here; settings: for Radioreceptor Assay 1 × 10^−6M / Radioreceptor Assay 1 × 10^−7M / inhibition at 1 µM: inhibition of 125I-A II binding, bovine adrenal cortex membrane fraction; for Radioreceptor Assay 1 × 10^−6M / inhibition at 1 µM: compound 1 × 10^−6M; for Radioreceptor Assay 1 × 10^−7M: compound 1 × 10^−7M; for inhibition at 1 µM / inhibition at 0.1 µM: 1 h; for inhibition at 0.1 µM: read-out: Radioreceptor Assay 1 × 10^−7M
T1 construct: An A II receptor membrane fraction was prepared from bovine adrenal cortex; from tissue; host or cells: bovine adrenal cortex membrane fraction
T1 sequence (P25104 1-359): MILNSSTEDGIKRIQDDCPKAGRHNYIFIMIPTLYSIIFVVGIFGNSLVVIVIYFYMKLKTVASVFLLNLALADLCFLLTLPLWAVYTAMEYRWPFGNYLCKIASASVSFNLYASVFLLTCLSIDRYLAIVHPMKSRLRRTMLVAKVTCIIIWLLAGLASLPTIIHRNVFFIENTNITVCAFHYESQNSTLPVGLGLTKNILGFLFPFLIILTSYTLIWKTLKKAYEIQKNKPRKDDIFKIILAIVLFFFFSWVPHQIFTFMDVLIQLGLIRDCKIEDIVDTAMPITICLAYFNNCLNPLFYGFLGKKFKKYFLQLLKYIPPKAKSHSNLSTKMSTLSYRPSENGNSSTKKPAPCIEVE
Procedure: An experiment of inhibition on the binding of angiotensin II (A II) to A II receptor was conducted by modifying the method of Douglas et al. [Endocrinology, 102, 685-696 (1978)]. An A II receptor membrane fraction was prepared from bovine adrenal cortex.
The compound of the present invention (10 ^−6M or 10^−7M) and ^125I-angiotensin II (^125I-A II) (1.85 kBq/50 μl ) were added to the receptor membrane fraction, and the mixture was incubated at room temperature for one hour. The receptor-bound and free ^125I-A II were separated through a filter (Whatman GF/B filter), and the radioactivity of ^125I-A II bound to the receptor was measured.

[2] = tested on: A II-induced pressor action; assay: Inhibitory effect on pressor action of A II after oral administration; type: in vivo, Jcl: SD rats; settings: for Pressor Response to A II (p.o.) 3 mg/kg: percent inhibition of pressor action of i.v. A II (100 ng/kg), 3 mg/kg p.o., rats; for inhibition in vivo at 3 mg/kg: Rattus norvegicus, po, read-out: Pressor Response to A II (p.o.) 3 mg/kg
Procedure: Jcl: SD rats (9 week old, male) were employed. On the previous day of the experiment, these animals were applied with cannulation into the femoral artery and vein under anesthesia with pentobarbital Na. The animals were fasted but allowed to access freely to drinking water until the experiment was started. Just on the day of conducting the experiment, the artery cannula was connected with a blood-pressure transducer, and the average blood pressure was recorded by means of polygraph. Before administration of the drug, the pressor action due to intravenous administration of A II (100 ng/kg) as the control was measured. The drugs were orally administered, then, at each point of the measurement, A II was administered intravenously, and the pressor action was similarly measured. By comparing the pressor action before and after administration of the drug, the percent inhibition by the drug on A II-induced pressor action was evaluated.

SMILES	melting point	inhibition at 1 µM (A II receptor) [%]	inhibition at 0.1 µM (A II receptor) [%]	inhibition in vivo at 3 mg/kg [2] [%]	further results
CCOc1nc2cccc(C(=O)OCOC(=O)C(C)C)c2n1Cc1ccc(-c2ccccc2-c2nnn[nH]2)cc1 [Working Example 53, Isobutyryloxymethyl 2-ethoxy-1-[[2′-(1 H-tetrazol-5-yl)biphenyl-4-yl]methyl]benzimidazole-7-carboxylate]	143 to 145 °C				
CCOc1nc2cccc(C(=O)OC(C)OC(=O)OC3CCCCC3)c2n1Cc1ccc(-c2ccccc2-c2nnn[nH]2)cc1 (stereo not drawn) [C-type crystal]					heat stability of solid form [1]: stable by heat
CCOc1nc2cccc(C(=O)OC(C)OC(=O)OC3CCCCC3)c2n1Cc1ccc(-c2ccccc2-c2nnn[nH]2)cc1 (stereo not drawn) [amorphous powders, 1-(Cyclohexyloxycarbonyloxy)ethyl 2-ethoxy-1-[[2′-(1 H-tetrazol-5-yl)biphenyl-4-yl]methyl]benzimidazole-7-carboxylate]					heat stability of solid form [1]: unstable by heat
CCOc1nc2cccc(C(=O)OCc3oc(=O)oc3C)c2n1Cc1ccc(-c2ccccc2-c2nnn[nH]2)cc1 [Working Example 49, (5-Methyl-2-oxo-1,3-dioxolen-4-yl)methyl 2-ethoxy-1-[[2′-(1 H-tetrazol-5-yl)biphenyl-4-yl]methyl]benzimidazole-7-carboxylate]	122 to 125 °C (dec.)				
CCOc1nc2cccc(C(=O)OCOC(=O)C3CCCCC3)c2n1Cc1ccc(-c2ccccc2-c2nnn[nH]2)cc1 [Working Example 58, Cyclohexylcarbonyloxymethyl 2-ethoxy-1-[[2′-(1 H-tetrazol-5-yl)biphenyl-4-yl]methyl]benzimidazole-7-carboxylate]	140 to 142 °C				
CCOc1nc2cccc(C(=O)OCOC(C)=O)c2n1Cc1ccc(-c2ccccc2-c2nnn[nH]2)cc1 [Working Example 50, Acetoxymethyl 2-ethoxy-1-[[2′-(1 H-tetrazol-5-yl)biphenyl-4-yl]methyl]benzimidazole-7-carboxylate]	152 to 154 °C (dec.)				
CCNc1nc2cccc(C(=O)OC(C)OC(=O)OC3CCCCC3)c2n1Cc1ccc(-c2ccccc2-c2nnn[nH]2)cc1 (stereo not drawn) [Working Example 63, 1-(Cyclohexyloxycarbonyloxy)ethyl 2-ethylamino-1-[[2′-(1 H-tetrazol-5-yl)biphenyl-4-yl]methyl]benzimidazole-7-carboxylate]	149 to 152 °C				
CCOC(=O)OC(C)OC(=O)c1cccc2nc(OCC)n(Cc3ccc(-c4ccccc4-c4nnn[nH]4)cc3)c12 (stereo not drawn) [Working Example 54, 1-(Ethoxycarbonyloxy)ethyl 2-ethoxy-1-[[2′-(1 H-tetrazol-5-yl)-biphenyl-4-yl]methyl]benzimidazole-7-carboxylate]	85 to 87 °C				
CCOc1nc2cccc(C(=O)OCOC(=O)C3CCCC3)c2n1Cc1ccc(-c2ccccc2-c2nnn[nH]2)cc1 [Working Example 61, Cyclopentylcarbonyloxymethyl 2-ethoxy-1-[[2′-(1 H-tetrazol-5-yl)biphenyl-4-yl]methyl]benzimidazole-7-carboxylate]	136 to 138 °C				
CCNc1nc2cccc(C(=O)OC(C)OC(=O)OC3CCCCC3)c2n1Cc1ccc(-c2ccccc2-c2nnn[nH]2)cc1 (stereo not drawn) [Example 63]					Radioreceptor Assay 1 × 10^−6M (A II receptor): 61; Radioreceptor Assay 1 × 10^−7M (A II receptor): 19; Pressor Response to A II (p.o.) 3 mg/kg [2]: +++ (+++ ≧ 70%)
CCOc1nc2cccc(C(=O)OC(C)OC(=O)OC3CCCCC3)c2n1Cc1ccc(-c2ccccc2-c2nnn[nH]2)cc1 (stereo not drawn) [Example 44]					Radioreceptor Assay 1 × 10^−6M (A II receptor): 77; Radioreceptor Assay 1 × 10^−7M (A II receptor): 32; Pressor Response to A II (p.o.) 3 mg/kg [2]: +++ (+++ ≧ 70%)
CCOc1nc2cccc(C(=O)OCOC(=O)/C=C/c3ccccc3)c2n1Cc1ccc(-c2ccccc2-c2nnn[nH]2)cc1 [Working Example 60, (E)-cinnamoyloxymethyl 2-ethoxy-1-[[2′-(1 H-tetrazol-5-yl)biphenyl-4-yl]methyl]benzimidazole-7-carboxylate]	146 to 147 °C				
CCOC(=O)OC(C)OC(=O)c1cccc2nc(OCC)n(Cc3ccc(-c4ccccc4-c4nnn[nH]4)cc3)c12 (stereo not drawn) [Example 54]		81	42	≥ 70	
CCCOc1nc2cccc(C(=O)O)c2n1Cc1ccc(-c2ccccc2-c2nnn[nH]2)cc1 [Example 31]		79	40	≥ 70	
CCOc1nc2cccc(C(=O)OC)c2n1Cc1ccc(-c2ccccc2-c2nnn[nH]2)cc1 [Example 39]		89	58	≥ 70	
CCOc1nc2cccc(C(=O)OC(C)OC(C)=O)c2n1Cc1ccc(-c2ccccc2-c2nnn[nH]2)cc1 (stereo not drawn) [Example 55]		91	63	≥ 70	
CCCOc1nc2cccc(C(=O)OCC)c2n1Cc1ccc(-c2ccccc2-c2nnn[nH]2)cc1 [Example 30]		48	16	≥ 70	
CCOC(=O)c1cccc2nc(SCC)n(Cc3ccc(-c4ccccc4-c4nnn[nH]4)cc3)c12 [Example 34]		54	17	≥ 70	
CCOc1nc2cccc(C(=O)OC(C)OC(C)=O)c2n1Cc1ccc(-c2ccccc2-c2nnn[nH]2)cc1 (stereo not drawn) [Working Example 55, 1-Acetoxyethyl 2-ethoxy-1-[[2′-(1 H-tetrazol-5-yl)biphenyl-4-yl]methyl]benzimidazole-7-carboxylate]	105 to 107 °C				
CCOc1nc2cccc(C(=O)OCOC(=O)CC)c2n1Cc1ccc(-c2ccccc2-c2nnn[nH]2)cc1 [Working Example 51, Propionyloxymethyl 2-ethoxy-1-[[2′-(1 H-tetrazol-5-yl)-biphenyl-4-yl]methyl]benzimidazole-7-carboxylate]	145 to 150 °C (dec.)				
CCOc1nc2cccc(C(=O)OCc3oc(=O)oc3C)c2n1Cc1ccc(-c2ccccc2-c2nnn[nH]2)cc1 [Example 49]		91	66	≥ 70	
CCSc1nc2cccc(C(=O)O)c2n1Cc1ccc(-c2ccccc2-c2nnn[nH]2)cc1 [Example 37]		80	41	≥ 70	
CCCC(=O)OCOC(=O)c1cccc2nc(OCC)n(Cc3ccc(-c4ccccc4-c4nnn[nH]4)cc3)c12 [Working Example 52, Butyryloxymethyl 2-ethoxy-1-[[2′-(1 H-tetrazol-5-yl)biphenyl-4-yl]methyl]benzimidazole-7-carboxylate]	96 to 100 °C				
CCNc1nc2cccc(C(=O)OCOC(=O)C(C)(C)C)c2n1Cc1ccc(-c2ccccc2-c2nnn[nH]2)cc1 [Working Example 62, Pivaloyloxymethyl 2-ethylamino-1-[[2′-(1 H-tetrazol-5-yl)biphenyl-4-yl]methyl]benzimidazole-7-carboxylate]	130 to 135 °C				
CCOc1nc2cccc(C(=O)OC(C)OC(=O)OC(C)C)c2n1Cc1ccc(-c2ccccc2)c(-c2nnn[nH]2)c1 (stereo not drawn) [Working Example 56, 1-(Isopropoxycarbonyloxy)ethyl 2-ethoxy-1-[[2-(1 H-tetrazol-5-yl)biphenyl-4-yl]methyl]benzimidazole-7-carboxylate]	74 to 76 °C				
CCOc1nc2cccc(C(=O)OCOC(=O)C3CCCC3)c2n1Cc1ccc(-c2ccccc2-c2nnn[nH]2)cc1 [Example 61]		89	54	≥ 70	
CCOC(=O)c1cccc2nc(SC)n(Cc3ccc(-c4ccccc4-c4nnn[nH]4)cc3)c12 [Example 33]		26	2	30 to 50	
